One block for each molecule: values may come before it.
Columns and labels:
[1] = male, human, in vivo; cited from earlier work
[2] = Tonicity of SBE7-β-CD solutions with respect to blood; format: physicochemical; settings: in water
From the text: An osmotic agent can be used in the compositions to enhance the overall comfort to the patient upon delivery of the corticosteroid composition. Osmotic agents can be added to adjust the tonicity of SAE-CD containing solutions. Osmolality is related to concentration of SAE-CD in water. At SBE7-β-CD concentrations below about 11-13% w/v, the solutions are hypotonic or hypoosmotic with respect to blood and at SBE7-β-CD concentrations above about 11-13% w/v the SBE7-β-CD containing solutions are hypertonic or hyperosmotic with respect to blood. When red blood cells are exposed to solutions that are hypo- or hypertonic, they can shrink or swell in size, which can lead to hemolysis. As noted above and in FIG. 1, SBE-CD is less prone to induce hemolysis than other derivatized cyclodextrins. Suitable osmotic agents include any low molecular weight water-soluble species pharmaceutically approved for pulmonary and nasal delivery such as sodium chloride, lactose and glucose. The formulation of the invention can also include biological salt(s), potassium chloride, or other electrolyte(s).

[3] = Viscosity of aqueous SAE-CD solutions (cone and plate viscometer); format: physicochemical; settings: 25 C
Description: The performance of an inhalable solution of the invention in a nebulizer may depend upon the viscosity of the solution in its reservoir, the nebulization solution. Viscosity of the inhalable composition can have an impact on percentage of nebulization composition emitted from a nebulizer, output rate of nebulized corticosteroid and droplet size distribution.
The viscosity of aqueous solutions containing SAE-CD were measured using a cone and plate viscometer.
A Brookfield Programmable DV-III+ Rheometer, CPE-40 cone and CPE 40Y plate (Brookfield Engineering Laboratories, Middleboro, Mass.) was used to make measurements on 0.5 ml samples at 1, 2, 3, 5 and 10 rpm. Samples were sheered for approximately 5 revolutions prior to each measurement. This allowed accurate rheological characterization of the samples. The temperature of all samples was equilibrated to 25+/−1 degree centigrade using a double wall viscometer cone supplied with water from an electronically controlled thermostatic circulating water bath (Model, 8001, Fisher Scientific, Pittsburgh, Pa.). The viscometer was calibrated using 5 and 50 centipoise using silicon oil calibration standards. Viscosity measurements were made at 5 or more rotation speeds to look for sheer thinning behavior (viscosities that decrease as the rate of sheer increases). Higher rotation speeds result in increased rates of sheer.

[4] = Density of CAPTISOL solutions (pycnometer); format: physicochemical; settings: 25° C.
Description: The concentration of SAE-CD in solution can be expressed on a weight to weight or weight to volume basis; however, these two units are interconvertible. When a known weight of cyclodextrin is dissolved in a known weight of water, the % w/w cyclodextrin concentration is determined by dividing the cyclodextrin weight in grams by the total weight (cyclodextrin+water weight) in like units and multiplying by 100. When a known weight of cyclodextrin is dissolved to a known total volume, the % w/v cyclodextrin concentration is determined by dividing the cyclodextrin weight in grams by the total volume in milliliters and multiplying by 100. The correlation between the two cyclodextrin concentration percentages was experimentally determined by preparing various % w/w cyclodextrin solutions and measuring the density of each with a pycnometer at 25° C.

[5] = test system: red blood cells; settings: concentrations typically used to solubilize pharmaceutical formulations; cited from earlier work
[6] = Light stability of budesonide under fluorescent lights; format: physicochemical
From the text: Samples of the above solutions were also placed in a chamber under a bank of fluorescent lights. Vials were periodically removed and assayed for budesonide. […] The loss of budesonide was first order and independent of pH.

[7] = Solubility of selected steroids enhanced by cyclodextrins (phase solubility); settings: thermodynamic from solid
[8] = Molar ratio SAE-CD:corticosteroid at saturated solubility (phase solubility binding study); format: physicochemical

Molecule: CCNC(=O)[C@@H]1CCCN1C(=O)[C@H](CCCNC(=N)N)NC(=O)[C@H](CC(C)C)NC(=O)[C@@H](CC(C)C)NC(=O)[C@H](Cc1ccc(O)cc1)NC(=O)[C@H](CO)NC(=O)[C@H](Cc1c[nH]c2ccccc12)NC(=O)[C@H](Cc1c[nH]cn1)NC(=O)[C@@H]1CCC(=O)N1 [leuprolide acetate]
- Bioavailability [1]: 2.4%
- Bioavailability compared with i.v. [1]: 94%

- SBE7-β-CD concentration below which solutions are hypotonic and above which hypertonic with respect to blood [2]: 11-13 % w/v
- Density ([4]; 8.5 % w/w Captisol): 1.041 g/mL
- Density ([4]; 29.8 % w/w Captisol): 1.149 g/mL
- Density ([4]; 39.7 % w/w Captisol): 1.202 g/mL
- Density ([4]; 49.4 % w/w Captisol): 1.259 g/mL
- Density ([4]; 59.4 % w/w Captisol): 1.320 g/mL
- Density ([4]; […] w/w Captisol): 1.095 g/mL
Molecule: Sulfobutyl ether β-cyclodextrin [Captisol]
- Viscosity ([3]; 8.5 % w/w Captisol): 1.75 Cp
- Viscosity ([3]; 29.8 % w/w Captisol): 5.91 Cp
- Viscosity ([3]; 39.7 % w/w Captisol): 17.0 Cp
- Viscosity ([3]; 49.4 % w/w Captisol): 51.9 Cp
- Viscosity ([3]; 59.4 % w/w Captisol): 527.0 Cp
- Viscosity ([3]; […] w/w Captisol): 2.78 Cp
- Hemolytic behavior [5]: essentially no hemolytic behavior

- Light Stability, Pseudo 1st Order Rate constant ([6]; Captisol, pH 4): 0.0585 h⁻¹
- Light Stability, Pseudo 1st Order Rate constant ([6]; Captisol, pH 6): 0.0562 h⁻¹
- Light Stability, Pseudo 1st Order Rate constant ([6]; No Captisol, pH 4): 0.0812 h⁻¹
- Light Stability, Pseudo 1st Order Rate constant ([6]; No Captisol, pH 6): 0.0822 h⁻¹
- solubility ([7]; aqueous cyclodextrin solution, aqueous with cosolvent or surfactant or cyclodextrin, Solubility of steroid, (SBE)5.2 γ-CD 0.04 M): 3.76 mM
- solubility ([7]; aqueous cyclodextrin solution, aqueous with cosolvent or surfactant or cyclodextrin, Solubility of steroid, (SBE)5.2 γ-CD 0.1 M): 8.62 mM
- solubility ([7]; aqueous cyclodextrin solution, aqueous with cosolvent or surfactant or cyclodextrin, Solubility of steroid, (SBE)6.1 γ-CD 0.04 M): 3.07 mM
- solubility ([7]; aqueous cyclodextrin solution, aqueous with cosolvent or surfactant or cyclodextrin, Solubility of steroid, (SBE)6.1 γ-CD 0.08 M): 6.99 mM
- solubility ([7]; aqueous cyclodextrin solution, aqueous with cosolvent or surfactant or cyclodextrin, Solubility of steroid, (SBE)6.7 β-CD 0.0465 M): 2.55 mM
- solubility ([7]; aqueous cyclodextrin solution, aqueous with cosolvent or surfactant or cyclodextrin, Solubility of steroid, (SBE)6.7 β-CD 0.0950 M): 4.28 mM
- solubility ([7]; aqueous cyclodextrin solution, aqueous with cosolvent or surfactant or cyclodextrin, Solubility of steroid, (SBE)7 α-CD 0.04 M): 3.48 mM
- solubility ([7]; aqueous cyclodextrin solution, aqueous with cosolvent or surfactant or cyclodextrin, Solubility of steroid, (SBE)7 α-CD 0.08 M): 5.98 mM
- solubility ([7]; aqueous cyclodextrin solution, aqueous with cosolvent or surfactant or cyclodextrin, Solubility of steroid, (SBE)9.7 γ-CD […]): 4.53 mM
- solubility ([7]; aqueous cyclodextrin solution, aqueous with cosolvent or surfactant or cyclodextrin, Solubility of steroid, (SPE)5.4 γ-CD 0.04 M): 4.01 mM
- solubility ([7]; aqueous cyclodextrin solution, aqueous with cosolvent or surfactant or cyclodextrin, Solubility of steroid, (SPE)5.4 γ-CD 0.08 M): 7.74 mM
- solubility ([7]; aqueous cyclodextrin solution, aqueous with cosolvent or surfactant or cyclodextrin, Solubility of steroid, (SPE)7 β-CD 0.08 M): 2.42 mM
- solubility ([7]; aqueous cyclodextrin solution, aqueous with cosolvent or surfactant or cyclodextrin, Solubility of steroid, β-CD 0.015M): 0.813 mM
- solubility ([7]; aqueous cyclodextrin solution, aqueous with cosolvent or surfactant or cyclodextrin, Solubility of steroid, γ-CD 0.035 M): 0.101 mM
- solubility ([7]; aqueous cyclodextrin solution, aqueous with cosolvent or surfactant or cyclodextrin, Solubility of steroid, γ-CD 0.1 M): 0.041 mM
- solubility ([7]; aqueous cyclodextrin solution, aqueous with cosolvent or surfactant or cyclodextrin, [Steroid] solubility, (SBE)6.1 γ-CD (0.04 M)): 3.07 mM
- solubility ([7]; aqueous cyclodextrin solution, aqueous with cosolvent or surfactant or cyclodextrin, [Steroid] solubility, Captisol (0.04 M)): 2.55 mM
- solubility ([7]; water, Solubility of steroid, H2O, no CD): 0.0659 mM
- solubility ([7]; water, [Steroid] Intrinsic Solubility (in H2O), in H2O): 0.066 mM
Molecule: CCCC1O[C@@H]2C[C@H]3[C@@H]4CCC5=CC(=O)C=C[C@]5(C)[C@H]4[C@@H](O)C[C@]3(C)[C@]2(C(=O)CO)O1 (stereo partly drawn) [Budesonide, (R,S)-11β,16α,17,21-tetrahydroxypregna-1,4-diene-3,20-dione cyclic 16,17-acetal with butyraldehyde]
- Approximate Molar Ratio at Saturated Solubility of Corticosteroid (SAE-CD: corticosteroid) ([8]; SAE-α-CD): ~12
- Approximate Molar Ratio at Saturated Solubility of Corticosteroid (SAE-CD: corticosteroid) ([8]; SAE-β-CD): ~16
- Approximate Molar Ratio at Saturated Solubility of Corticosteroid (SAE-CD: corticosteroid) ([8]; SAE-γ-CD (SBE5.2)): ~10.8 (SBE5.2),
- Approximate Molar Ratio at Saturated Solubility of Corticosteroid (SAE-CD: corticosteroid) ([8]; SAE-γ-CD (SBE6.1)): ~13 (SBE6.1),
- Approximate Molar Ratio at Saturated Solubility of Corticosteroid (SAE-CD: corticosteroid) ([8]; SAE-γ-CD (SPE5.4)): ~10.1 (SPE5.4)

— US20070020196A1, “Inhalant formulation containing sulfoalkyl ether cyclodextrin and corticosteroid prepared from a unit dose suspension” (priority 2003, published 2007)
